Usually melting point stands for the temperature, or range, at which the solid turns liquid.

Molecule `N#Cc1ncn2c(C(F)(F)F)cc(-c3cccc(Cl)c3)nc12` [Example 5.3, 2-(3-Chloro-phenyl)-4-trifluoromethyl-imidazo[1,5-a]pyrimidine-8-carbonitrile] came in with a melting point of 221 °C.
With `COc1ccc(-c2cc(C(F)(F)F)n3ncc(-c4ccncc4)c3n2)cc1` [Example 4.58, 5-(4-Methoxy-phenyl)-3-pyridin-4-yl-7-trifluoromethyl-pyrazolo[1,5-a]pyrimidine] the figure was 244 °C; with `Cc1cc(-c2cnn3c(C(F)(F)F)cc(-c4ccc(Cl)cc4)nc23)cc(C)n1` [Example 4.19, 5-(4-Chloro-phenyl)-3-(2,6-dimethyl-pyridin-4-yl)-7-trifluoromethyl-pyrazolo[1,5-a]pyrimidine], 256 °C.
`N#CCc1nn2c(C(F)(F)F)cc(-c3ccc(F)c(Cl)c3)nc2c1C#N` [Example 3.1, 5-(3-Chloro-4-fluoro-phenyl)-2-cyanomethyl-7-trifluoromethyl-pyrazolo[1,5-a]pyrimidine-3-carbonitrile] registered a melting point of 185 °C.
Molecule `Cc1cc(-c2cc(C(F)(F)F)n3ncc(-c4ccnc(CO)c4)c3n2)ccc1Cl` [Example 6.3, {4-[5-(4-Chloro-3-methyl-phenyl)-7-trifluoromethyl-pyrazolo[1,5-a]pyrimidin-3-yl]-pyridin-2-yl}-methanol] had a melting point of 220 °C.
With `N#Cc1cnn2c(C(F)(F)F)cc(-c3ccc(C(F)(F)F)cc3)nc12` [Example 1.7, 5-(4-Trifluoromethyl-phenyl)-7-trifluoromethyl-pyrazolo[1,5-a]pyrimidine-3-carbonitrile] the figure was 176 °C.
Molecule `Cc1ccc(-c2cc(C(F)(F)F)n3ncc(-c4ccncc4)c3n2)cc1C(F)(F)F` [Example 4.27, 5-(4-Methyl-3-trifluoromethyl-phenyl)-3-pyridin-4-yl-7-trifluoromethyl-pyrazolo[1,5-a]pyrimidine] displayed a melting point of 218 °C.
Take `N#Cc1ncn2c(C(F)(F)F)cc(-c3ccc(Cl)cc3)nc12` [Example 5.2, 2-(4-Chloro-phenyl)-4-trifluoromethyl-imidazo[1,5-a]pyrimidine-8-carbonitrile]: the melting point is 205 °C.
`FC(F)(F)c1cccc(-c2cc(C(F)(F)F)n3cnc(-c4ccncc4)c3n2)c1` [Example 8.13, 8-Pyridin-4-yl-4-trifluoromethyl-2-(3-trifluoromethyl-phenyl)-imidazo[1,5-a]pyrimidine]: the melting point is 258 °C.
Regarding `N#Cc1cnn2c(C(F)(F)F)cc(-c3ccc(F)c(Cl)c3)nc12` [Example 1.14, 5-(3-Chloro-4-fluoro-phenyl)-7-trifluoromethyl-pyrazolo[1,5-a]pyrimidine-3-carbonitrile], the melting point amounted to 190 °C.
Next, `Fc1cc(-c2cc(C(F)(F)F)n3ncc(-c4ccncc4)c3n2)ccc1C(F)(F)F` [Example 4.17, 5-(3-Fluoro-4-trifluoromethyl-phenyl)-3-pyridin-4-yl-7-trifluoromethyl-pyrazolo[1,5-a]pyrimidine]: 262 °C.
Next, `Cc1cc(-c2cnn3c(C(F)(F)F)cc(-c4cccc(C(F)(F)F)c4)nc23)ccn1` [Example 4.34, 5-(3-Trifluoromethyl-phenyl)-3-(2-methyl-pyridin-4-yl)-7-trifluoromethyl-pyrazolo[1,5-a]pyrimidine]: 232 °C; `N#Cc1cnn2c(C(F)(F)F)cc(-c3ccc(Cl)cc3Cl)nc12` [Example 1.4, 5-(2,4-Dichloro-phenyl)-7-trifluoromethyl-pyrazolo[1,5-a]pyrimidine-3-carbonitrile]: 180 °C.
With `Cc1ccc(-c2cc(C(F)(F)F)n3ncc(C#N)c3n2)cc1` [Example 1.2, 5-(4-Methyl-phenyl)-7-trifluoromethyl-pyrazolo[1,5-a]pyrimidine-3-carbonitrile] the figure was 121 °C; with `Cc1cc(-c2ncn3c(C(F)(F)F)cc(-c4ccc(F)c(Cl)c4)nc23)ccn1` [Example 8.22, 2-(3-Chloro-4-fluoro-phenyl)-8-(2-methyl-pyridin-4-yl)-4-trifluoromethyl-imidazo[1,5-a]pyrimidine], 255 °C.
`FC(F)(F)c1cc(-c2ccc(Cl)c(Cl)c2)nc2c(-c3ccncc3)cnn12` [Example 4.10, 5-(3,4-Dichloro-phenyl)-3-pyridin-4-yl-7-trifluoromethyl-pyrazolo[1,5-a]pyrimidine] yielded a melting point of 260 °C.
In turn, `CCOc1ccc(-c2cc(C(F)(F)F)n3ncc(-c4ccnc(C)c4)c3n2)cc1C(F)(F)F` [Example 4.44, 5-(4-Ethoxy-3-trifluoromethyl-phenyl)-3-(2-methyl-pyridin-4-yl)-7-trifluoromethyl-pyrazolo[1,5-a]pyrimidine] returned a melting point of 250 °C.
On to `Cc1ccc(-c2cc(C(F)(F)F)n3cnc(C#N)c3n2)cc1C(F)(F)F` [Example 5.22, 2-(4-Methyl-3-trifluoromethyl-phenyl)-4-trifluoromethyl-imidazo[1,5-a]pyrimidine-8-carbonitrile], for which the melting point is 220 °C.
`Cc1cc(-c2cnn3c(C(F)(F)F)cc(-c4ccc(C(F)(F)F)c(C)c4)nc23)cc(C)n1` [Example 4.38, 5-(3-Methyl-4-trifluoromethyl-phenyl)-3-(2,6-dimethyl-pyridin-4-yl)-7-trifluoromethyl-pyrazolo[1,5-a]pyrimidine] returned a melting point of 253 °C.
With `Cc1nn2c(C(F)(F)F)cc(-c3ccc(C(F)(F)F)cc3)nc2c1C#N` [Example 2.1, 2-Methyl-5-(4-trifluoromethyl-phenyl)-7-trifluoromethyl-pyrazolo[1,5-a]pyrimidine-3-carbonitrile], the melting point turned out to be 184 °C.
The molecule `OCc1cc(-c2cnn3c(C(F)(F)F)cc(-c4ccc(Cl)c(Cl)c4)nc23)ccn1` [Example 6.4, {4-[5-(3,4-Dichloro-phenyl)-7-trifluoromethyl-pyrazolo[1,5-a]pyrimidin-3-yl]-pyridin-2-yl}-methanol] displayed a melting point of 233 °C.
As to `CCOc1cc(-c2cc(C(F)(F)F)n3ncc(-c4ccnc(C)c4)c3n2)ccc1C(F)(F)F` [Example 4.49, 5-(3-Ethoxy-4-trifluoromethyl-phenyl)-3-(2-methyl-pyridin-4-yl)-7-trifluoromethyl-pyrazolo[1,5-a]pyrimidine], the melting point came to 226 °C.
Next, `FC(F)(F)c1ccc(-c2cc(C(F)(F)F)n3ncc(-c4ccncc4)c3n2)cc1` [Example 4.15, 5-(4-Trifluoromethyl-phenyl)-3-pyridin-4-yl-7-trifluoromethyl-pyrazolo[1,5-a]pyrimidine]: 261 °C; `Fc1ccc(-c2cc(C(F)(F)F)n3ncc(-c4ccncc4)c3n2)cc1Cl` [Example 4.7, 5-(3-Chloro-4-fluoro-phenyl)-3-pyridin-4-yl-7-trifluoromethyl-pyrazolo[1,5-a]pyrimidine]: 265 °C; `Cc1cc(-c2cnn3c(C(F)(F)F)cc(-c4ccc(OCC(F)(F)F)c(C(F)(F)F)c4)nc23)cc(C)n1` [Example 4.45, 5-[4-(2,2,2-Trifluoroethoxy)-3-trifluoromethyl-phenyl]-3-(2,6-dimethyl-pyridin-4-yl)-7-trifluoromethyl-pyrazolo[1,5-a]pyrimidine]: 229 °C.
`N#Cc1cnn2c(C(F)(F)F)cc(-c3cccc(F)c3)nc12` [Example 1.8, 5-(3-Fluoro-phenyl)-7-trifluoromethyl-pyrazolo[1,5-a]pyrimidine-3-carbonitrile] registered a melting point of 199 °C.
With `Cc1cc(-c2cc(C(F)(F)F)n3ncc(-c4cccnc4)c3n2)ccc1C(F)(F)F` [Example 4.36, 5-(3-Methyl-4-trifluoromethyl-phenyl)-3-pyridin-3-yl-7-trifluoromethyl-pyrazolo[1,5-a]pyrimidine] the figure was 177 °C.
With `N#Cc1ncn2c(C(F)(F)F)cc(-c3cccc(C(F)(F)F)c3)nc12` [Example 5.11, 2-(3-Trifluoromethyl-phenyl)-4-trifluoromethyl-imidazo[1,5-a]pyrimidine-8-carbonitrile] the figure was 202 °C; with `N#Cc1cnn2c(C(F)(F)F)cc(-c3cccnc3)nc12` [Example 1.21, 5-Pyridin-3-yl-7-trifluoromethyl-pyrazolo[1,5-a]pyrimidine-3-carbonitrile], 193 °C; with `CCOc1ccc(-c2cc(C(F)(F)F)n3ncc(-c4cccnc4)c3n2)cc1C(F)(F)F` [Example 4.40, 5-(4-Ethoxy-3-trifluoromethyl-phenyl)-3-pyridin-3-yl-7-trifluoromethyl-pyrazolo[1,5-a]pyrimidine], 178 °C.
Next, `Cc1cc(-c2cnn3c(C(F)(F)F)cc(-c4ccc(C(F)(F)F)c(C)c4)nc23)ccn1` [Example 4.39, 5-(3-Methyl-4-trifluoromethyl-phenyl)-3-(2-methyl-pyridin-4-yl)-7-trifluoromethyl-pyrazolo[1,5-a]pyrimidine]: 237 °C; `Cc1cc(-c2ncn3c(C(F)(F)F)cc(-c4ccc(C(F)(F)F)c(C)c4)nc23)ccn1` [Example 8.29, 2-(3-Methyl-4-trifluoromethyl-phenyl)-8-(2-methyl-pyridin-4-yl)-4-trifluoromethyl-imidazo[1,5-a]pyrimidine]: 243 °C; `Fc1ccc(-c2cc(C(F)(F)F)n3cnc(-c4ccncc4)c3n2)cc1Cl` [Example 8.11, 2-(3-Chloro-4-fluoro-phenyl)-8-pyridin-4-yl-4-trifluoromethyl-imidazo[1,5-a]pyrimidine]: 266 °C.
In turn, `FC(F)(F)c1cccc(-c2cc(C(F)(F)F)n3ncc(-c4ccncc4)c3n2)c1` [Example 4.16, 5-(3-Trifluoromethyl-phenyl)-3-pyridin-4-yl-7-trifluoromethyl-pyrazolo[1,5-a]pyrimidine] gave a melting point of 241 °C.
In turn, `FC(F)(F)c1cccc(-c2cc(C(F)(F)F)n3cnc(-c4cccnc4)c3n2)c1` [Example 8.5, 8-Pyridin-3-yl-4-trifluoromethyl-2-(3-trifluoromethyl-phenyl)-imidazo[1,5-a]pyrimidine] gave a melting point of 194 °C.
Next, `N#Cc1cnn2c(C(F)(F)F)cc(-c3cccc(C(F)(F)F)c3)nc12` [Example 1.6, 5-(3-Trifluoromethyl-phenyl)-7-trifluoromethyl-pyrazolo[1,5-a]pyrimidine-3-carbonitrile]: 192 °C.

The values above are taken from US7514443B2, “Substituted pyrazolo[1,5-a]pyrimidines as inhibitors of metabotropic glutamate receptors” (Hoffmann-La Roche Inc., priority 2003, dated 2009).
